Paper PMC11085208, “Cyclometalated and NNN Terpyridine Ruthenium Photocatalysts and Their Cytotoxic Activity” (Molecules, 2024)
Where “and” joins values, the source holds several entries; their conditions need not be identical. Identical values can stand only once. Entries after “also recorded” stand apart in the source; their conditions may differ.

Assays:
Nthy-ori 3-1 cells = assay: MTT cell viability assay, non-tumorigenic Nthy-ori 3-1 cells; assay type: cell-based, human; conditions: MTT test, 72 h, nontumorigenic thyroid cells, mean ± SD
Source text: (§1) Anaplastic thyroid cancer (ATC), while rare, remains one of the deadliest cancers known, showing a median overall survival of 3 months. […] Several therapeutic strategies were thus developed, ranging from more classical methods such as inhibition of cyclin-dependent kinases, to more innovative ones including the use of epigenetic drugs. However, so far, all efforts made in the search for new molecules that can counteract the very high mortality of ATC have often been thwarted by the relative ease with which cancer cells are able to gain drug resistance. For these reasons, the development of new molecules that can increase ATC treatment options is crucial in an effort to extend the life expectancy. A preliminary assessment of the effects of the compounds under consideration involved studying their effectiveness in terms of cell viability. In order to evaluate the antitumor efficacy of ruthenium compounds, they were administered to ATC cells (SW1736 and 8505C) and to a non-tumorigenic thyroid cell line (Nthy-ori 3-1) at increasing doses, and an MTT assay was performed. Once the effects in terms of cell viability were observed, the effective dose 50 (ED50) was calculated by interpolation of the scatter plot curve (dose/effect). The two lines of ATC were similarly sensitive to each of the compounds tested, with the ED50 spanning from 0.3 to 8 µM, calculated at a 72 h time point (Table 2).
(§2) In this study, we used two different human anaplastic thyroid cancer cell lines (SW1736 and 8505C) and a non-tumorigenic thyroid cell line (Nthy-ori 3-1) that were grown as previously described. All cell lines have been validated by short tandem repeat and tested for being mycoplasma-free. Cells were grown in RPMI 1640 medium (EuroClone, Milan, Italy) supplemented with 10% fetal bovine serum (Gibco Invitrogen, Milan, Italy), 2 mM L-glutamine (EuroClone, Milan, Italy), and […] gentamicin (Gibco Invitrogen, Milan, Italy). Cells were maintained in a humidified incubator (5% CO2, 37 °C).
(§3) In order to test cell viability, we applied the methylthiazolyldiphenyl-tetrazolium bromide (MTT) assay as previously described. SW1736, 8505C and Nthy-ori 3-1cells (3000 cells/well) were plated onto 96-well plates in 200 μL medium/well and were allowed to attach to the plate for 24 h (t0). Plates were then treated either with DMSO or with each of the different compounds at different concentrations for 72 h. Then, 4 mg/mL MTT (Merck, Darmstadt, Germany) was added to the cell medium, and cells were cultivated for another 4 h in the incubator. The supernatant was removed, 100 μL/well of DMSO (Merck, Darmstadt, Germany) was added, and the absorbance at 570 nm was measured. All experiments were run sixfold and cell viability was expressed as a fold change compared to control. ED50 was calculated by interpolation of the scatter plot obtained by crossing each dose with its own observed effect.

SW1736 cells = assay: MTT cell viability assay, SW1736 cells; assay type: cell-based, human; conditions: for ED50 SW1736: MTT test, 72 h, mean ± SD
Source text: as §1, §2, §3

8505C cells = assay: MTT cell viability assay, 8505C cells; assay type: cell-based, human; conditions: MTT test, 72 h, mean ± SD
Source text: as §1, §2, §3

[1] = test system: anaplastic thyroid cancer 8505C and SW1736 cell lines; assay: MTT cell viability assay, ATC cell lines taken together; assay type: cell-based; conditions: 72 h
Source text: as §1
In this study, we used two different human anaplastic thyroid cancer cell lines (SW1736 and 8505C) and a non-tumorigenic thyroid cell line (Nthy-ori 3-1) that were grown as previously described. […]
In order to test cell viability, we applied the methylthiazolyldiphenyl-tetrazolium bromide (MTT) assay as previously described. […] The supernatant was removed, 100 μL/well of DMSO (Merck, Darmstadt, Germany) was added, and the absorbance at 570 nm was measured. All experiments were run sixfold and cell viability was expressed as a fold change compared to control. ED50 was calculated by interpolation of the scatter plot obtained by crossing each dose with its own observed effect.

N.N.[Cl][Pt][Cl] [Cisplatin, reference compound]
ED50 Nthy-ori 3-1 (Nthy-ori 3-1 cells): 11.28 ± 0.96 µM | ED50 SW1736 (SW1736 cells): 6.40 ± 1.54 µM | ED50 8505C (8505C cells): 5.20 ± 1.82 µM

[Ru(η^1-OAc)(NNN-tpy)((R,R)-Skewphos)]OAc [Complex 6]
ED50 Nthy-ori 3-1 (Nthy-ori 3-1 cells): 4.38 ± 0.13 µM | ED50 SW1736 (SW1736 cells): 1.39 µM and 1.39 ± 0.14 µM | ED50 8505C (8505C cells): 1.88 ± 0.21 µM

[Ru(η^1-OAc)(NNN-tpy)((S,S)-Skewphos)]OAc [Complex 7]
ED50 Nthy-ori 3-1 (Nthy-ori 3-1 cells): 4.85 ± 0.17 µM | cytotoxicity (ED50) compared to the enantiomer 6 (SW1736 cells; ED50 0.31 vs 1.39 µM): four times lower; also recorded: four times higher | ED50 SW1736 (SW1736 cells): 0.31 µM and 0.31 ± 0.11 µM | ED50 8505C (8505C cells): 0.75 ± 0.09 µM

[Ru(η^2-OAc)(NC-tpy)((R,R)-Skewphos)] [Complex 4]
ED50 Nthy-ori 3-1 (Nthy-ori 3-1 cells): 3.88 ± 0.31 µM | ED50 SW1736 (SW1736 cells): 2.18 ± 0.16 µM | cytotoxicity (in words) [1]: moderate cytotoxicity | ED50 8505C (8505C cells): 1.95 ± 0.23 µM

[Ru(η^2-OAc)(NC-tpy)((S,S)-Skewphos)] [Complex 5]
ED50 Nthy-ori 3-1 (Nthy-ori 3-1 cells): 4.18 ± 0.09 µM | ED50 SW1736 (SW1736 cells): 2.11 ± 011 µM | cytotoxicity (in words) [1]: moderate cytotoxicity | ED50 8505C (8505C cells): 2.06 ± 0.26 µM

[Ru(η^2-OAc)(NC-tpy)(dppb)] [Complex 1]
ED50 Nthy-ori 3-1 (Nthy-ori 3-1 cells): 10.59 ± 1.28 µM | ED50 SW1736 (SW1736 cells): 8.53 ± 0.98 µM | cytotoxicity (in words) [1]: moderate cytotoxicity | ED50 8505C (8505C cells): 7.73 ± 1.02 µM

[RuCl(NNN-tpy)((R,R)-Skewphos)]Cl [reference compound]
ED50 Nthy-ori 3-1 (Nthy-ori 3-1 cells): 6.91 ± 0.62 µM | ED50 SW1736 (SW1736 cells): 3.36 ± 0.42 µM | ED50 8505C (8505C cells): 4.57 ± 0.53 µM

[RuCl(NNN-tpy)((S,S)-Skewphos)]PF6 [reference compound]
ED50 Nthy-ori 3-1 (Nthy-ori 3-1 cells): 7.21 ± 0.74 µM | ED50 SW1736 (SW1736 cells): 2.63 µM and 2.63 ± 0.14 µM | ED50 8505C (8505C cells): 2.25 ± 0.17 µM
